Among the data in US8309593B2, “2-acylaminopropoanol-type glucosylceramide synthase inhibitors” (Genzyme Corporation, priority 2008, dated 2012) are IC50 values, retold here.

Each structure is given as a SMILES string. Bounds are passed on as bounds.

The first experiment deals with GM3. Put plainly: GM3 Elisa assay. To be noted: 48 h, Table 1; B16-FO cells, 2 days with compound; read-out: IC50_uM_Mean. It is filed as cell-based. On the procedure:
B16-FO cells from ATCC (American Tissue Culture Collection) were grown in DMEM media (ATCC) with 10% Fetal Bovine Serum (Hyclone) and Pen/Step/Glutamine (Biowhittaker). 4000 cells per well were plated on collagen coated plates (BD) and allowed to attach for 6 hours in an incubator (37 degrees, 5% CO2). After 6 hours the compounds and controls were added to the wells, the plates mixed and returned to the incubator for 2 days. Day of assay the cells were fixed for 20 minutes with 1% formaldehyde and then washed with Tris Buffered Saline (TBS) 3 times, 150 μl of TBS was left in the wells and 50 μl of goat serum (Invitrogen) was added, the plates mixed and incubated for 1 hour at room temperature. The plates were flicked and the cells incubated with the monoclonal Antibody to GM3 (NeuAc) (Cosmo) for 45 minutes as room temperature. The plates were then washed 3 times with TBS, leaving 150 μl of TBS in the wells and Peroxidase AffinPure F (ab′) 2 frag Gt Anti-mouse IgM, μ Chain Specific (Jackson Immuno Research) was added in 50 μl, the plates mixed and incubated for 45 minutes at room temperature. The plates were washed 3 times with TBS, flicked and blotted and 100 μl of Quantablu (Pierce) was added to the wells and incubated for 1 hour then read on a Fluorometer at Ex 325 and Em 420. The data was then analyzed using standard programs.
As to `COc1cccc(CNC(=O)N[C@H](CN2CCCC2)[C@H](O)c2ccc3c(c2)OCCO3)c1` [Compound 80, 1-((1R,2R)-1-(2,3-dihydrobenzo[β][1,4]dioxin-6-yl)-1-hydroxy-3-(pyrrolidin-1-yl)propan-2-yl)-3-(3-methoxybenzyl)urea], the IC50 was not above 0.1 µM.

In the case of `O=C(CCC(=O)c1ccc(C(F)(F)F)cc1)N[C@H](CN1CCCC1)[C@H](O)c1ccc2c(c1)OCCO2` [Compound 176, N-((1R,2R)-1-(2,3-dihydrobenzo[β][1,4]dioxin-6-yl)-1-hydroxy-3-(pyrrolidin-1-yl)propan-2-yl)-4-oxo-4-(4-(trifluoromethyl)phenyl)butanamide (2S,3S)-2,3-dihydroxysuccinate], the IC50 is not above 0.1 µM.

As to `CCC(=O)c1ccc(OCCC(=O)N[C@H](CN2CCCC2)[C@H](O)c2ccc3c(c2)OCCO3)cc1` [Compound 189, N-((1R,2R)-1-(2,3-dihydrobenzo[b][1,4]dioxin-6-yl)-1-hydroxy-3-(pyrrolidin-1-yl)propan-2-yl)-3-(4-propionylphenoxy)propanamide (2R,3R)-2,3-dihydroxysuccinate], the IC50 was 0.1 to 1 µM.

Regarding `CC(C)Oc1ccc(C(=O)CCC(=O)N[C@H](CN2CCCC2)[C@H](O)c2ccc3c(c2)OCCO3)cc1` [Compound 162, N-((1R,2R)-1-(2,3-dihydrobenzo[β][1,4]dioxin-6-yl)-1-hydroxy-3-(pyrrolidin-1-yl)propan-2-yl)-4-(4-isopropoxyphenyl)-4-oxobutanamide], the IC50 is not above 0.1 µM.

Consider `CC(C)(C)c1ccc(C(=O)CCCCCC(=O)N[C@H](CN2CCCC2)[C@H](O)c2ccc3c(c2)OCCO3)cc1` [Compound 160, 7-(4-tert-butylphenyl)-N((1R,2R)-1-(2,3-dihydrobenzo[β][1,4]dioxin-6-yl)-1-hydroxy-3-(pyrrolidin-1-yl)propan-2-yl)-7-oxoheptanamide], for which the IC50 was in the range of 0.1 to 1 µM.

As for `CCc1ccc(OCCC(=O)N[C@H](CN2CCCC2)[C@H](O)c2ccc3c(c2)OCCO3)cc1` [Compound 188, N-((1R,2R)-1-(2,3-dihydrobenzo[b][1,4]dioxin-6-yl)-1-hydroxy-3-(pyrrolidin-1-yl)propan-2-yl)-3-(4-ethylphenoxy)propanamide (2R,3R)-2,3-dihydroxysuccinate], the IC50 was 0.1 to 1 µM.

Still in this experiment, the particulars now being: Table 3 (title: IC 50 Values); read-out: IC50_uM_Mean.
`COc1ccc(C(=O)CCCCCC(=O)N[C@H](CN2CCCC2(C)C)[C@@H](O)c2ccc3c(c2)OCCO3)cc1` [Compound 552]: the IC50 lay within 1 to 3 µM.

Turning to `O=C(N[C@H](CN1CCCC1)[C@H](O)c1ccc2c(c1)OCCO2)[C@H]1CC[C@@H](C(=O)c2ccc(F)cc2)C1` [Compound 635], the IC50 fell in the range of 3 to 10 µM.

For the molecule `CCCCCCCCCCCCCCCC(=O)N[C@H](CN(C)C(C)C)[C@H](O)c1ccc2c(c1)OCCO2` [Compound 684], the IC50 is 0.1 to 1 µM.

`CCCCCCCC(=O)N[C@H](CN1CC[C@@H](F)C1)[C@H](O)c1ccc2c(c1)OCCO2` [Compound 504]: the IC50 was in the range of 0.1 to 1 µM.

As for `CCCCCCCC(=O)N[C@H](CN1CCCC1)[C@@H](O)c1ccc(OC(F)(F)F)cc1` [Compound 667], the IC50 lay within 0.1 to 1 µM.

Consider `O=C(CCCCOC1CCOCC1)N[C@H](CN1CC[C@@H](F)C1)[C@@H](O)c1ccc(CCc2ccccc2)cc1` [Compound 575], for which the IC50 lay within 0.1 to 1 µM.

For `CCCCCCCC(=O)N[C@H](CN1CC[C@@H](O)C1)[C@@H](O)c1ccc2c(c1)OCCO2` [Compound 512], the IC50 lay within 1 to 3 µM.

Take `COc1ccc(C(=O)CCCCCC(=O)N[C@H](CN2CC3CC3C2)[C@@H](O)c2ccc3c(c2)OCCO3)cc1` (stereo partly shown) [Compound 537]: the IC50 is not above 0.1 µM.

On to `COc1ccc(OCCC(=O)N[C@H](CN2CCCC2)[C@@H](O)c2ccc3c(c2)OCCO3)cc1` [Compound 676], for which the IC50 lay within 3 to 10 µM.

For `CCCCCCCC(=O)N[C@H](CN1CCC[C@H]1COC)C(O)c1ccc2c(c1)OCCO2` (stereo partly shown) [Compound 534], the IC50 was 3 to 10 µM.

As for `Cc1noc(CCCCC(=O)N[C@@H](CN2CCCC2)C(O)c2ccc3c(c2)OCCO3)n1` (stereo partly shown) [Compound 652], the IC50 was 3 to 10 µM.

Turning to `CCCCCCCC(=O)N[C@H](CN1CCCC1(C)C)[C@@H](O)c1ccc2c(c1)OCCO2` [Compound 553], the IC50 fell in the range of 3 to 10 µM.

For the molecule `CC(O)(CCCCCC(=O)N[C@H](CN1CCCC1)[C@@H](O)c1ccc2c(c1)OCCO2)C1CCCCC1` (stereo partly shown) [Compound 641], the IC50 was not above 0.1 µM.

As to `O=C(CC(F)(F)F)N[C@H](CN1CCCC1)[C@@H](O)c1ccc2c(c1)OCCO2` [Compound 624], the IC50 was 3 to 10 µM.

On to `CCCCOc1ccc([C@H](O)[C@@H](CN2CC[C@H](O)C2)NC(=O)CCCCCCCOC)cc1` [Compound 586], for which the IC50 was not above 0.1 µM.

As for `COc1ccc(OCCC(=O)N[C@H](CN2CCC[C@@H]2C)C(O)c2ccc3c(c2)OCCO3)cc1` (stereo partly shown) [Compound 526], the IC50 is 0.1 to 1 µM.

Turning to `CCCCOc1ccc([C@H](O)[C@@H](CN2CC[C@@H](F)C2)NC(=O)CCCCCCCOC)cc1` [Compound 584], the IC50 lay in the range of 0.1 to 1 µM.

`COc1ccc(C(=O)CCCCCC(=O)N[C@H](CN2[C@H](C)CC[C@@H]2C)[C@H](O)c2ccc3c(c2)OCCO3)cc1` [Compound 548]: the IC50 lay within 1 to 3 µM.

In the case of `O=C(CCCCCCOCC(F)(F)F)N[C@H](CN1CCCC1)[C@@H](O)c1ccc2c(c1)OCCO2` [Compound 634], the IC50 lay within 0.1 to 1 µM.

With `CCCCCCCC(=O)N[C@H](CN1CC[C@H](F)C1)[C@H](O)c1ccc2c(c1)OCCO2` [Compound 510], the IC50 is 3 to 10 µM.

Consider `COC[C@H]1CCCN1C[C@@H](NC(=O)CCCCCC(=O)c1ccc(OC)cc1)[C@@H](O)c1ccc2c(c1)OCCO2` [Compound 539], for which the IC50 is 3 to 10 µM.

For the molecule `O=C(CCCCCC1CCOCC1)N[C@H](CN1CC[C@@H](F)C1)[C@@H](O)c1cccc(OCc2ccccc2)c1` [Compound 574], the IC50 is 0.1 to 1 µM.

`O=C(CCCCS(=O)(=O)C1CCCCC1)N[C@H](CN1CCCC1)[C@@H](O)c1ccc2c(c1)OCCO2` [Compound 557]: the IC50 lay within 3 to 10 µM.

As to `CCCCCCCC(=O)N[C@H](CN1CCC[C@@H]1C)C(O)c1ccc2c(c1)OCCO2` (stereo partly shown) [Compound 527], the IC50 was 1 to 3 µM.

As for `CC(O)(CCCCCC(=O)N[C@H](CN1CCCC1)[C@@H](O)c1ccc2c(c1)OCCO2)C1CCCC1` (stereo partly shown) [Compound 633], the IC50 lay in the range of 0.1 to 1 µM.

Turning to `CCCCCCCCCCCCCCCCC(=O)N[C@H](CN(C)Cc1ccco1)[C@H](O)c1ccc2c(c1)OCCO2` [Compound 683], the IC50 was 3 to 10 µM.

With `CCCCCCCC(=O)N[C@H](CN1CC[C@H](O)C1)[C@@H](O)c1ccc2c(c1)OCCO2` [Compound 515], the IC50 is not above 0.1 µM.

On to `COC[C@H]1CCCN1C[C@@H](NC(=O)CCOc1ccc(OC)cc1)[C@@H](O)c1ccc2c(c1)OCCO2` [Compound 538], for which the IC50 was 3 to 10 µM.

Take `CCCCCCCC(=O)N[C@H](CN1CCC[C@H]1C)C(O)c1ccc2c(c1)OCCO2` (stereo partly shown) [Compound 530]: the IC50 is 3 to 10 µM.

In the case of `COC[C@@H]1CCCN1C[C@@H](NC(=O)CCCCCC(=O)c1ccc(OC)cc1)C(O)c1ccc2c(c1)OCCO2` (stereo partly shown) [Compound 533], the IC50 was in the range of 0.1 to 1 µM.

As for `COc1ccc(C(=O)CCCCCC(=O)N[C@H](CN2CCCC2)[C@@H](O)c2ccc(OC(F)(F)F)cc2)cc1` [Compound 666], the IC50 lay within 0.1 to 1 µM.

With `O=C(CCCCCC(=O)c1ccc(F)cc1)NC(CN1CC[C@H](O)C1)[C@H](O)c1ccc2c(c1)OCCO2` (stereo partly shown) [Compound 653], the IC50 was not above 0.1 µM.

Consider `COc1ccc(OCCC(=O)N[C@H](CN2CCC[C@H]2C)C(O)c2ccc3c(c2)OCCO3)cc1` (stereo partly shown) [Compound 528], for which the IC50 was in the range of 1 to 3 µM.

`COC[C@@H]1CCCN1C[C@@H](NC(=O)CCOc1ccc(OC)cc1)C(O)c1ccc2c(c1)OCCO2` (stereo partly shown) [Compound 535]: the IC50 is 3 to 10 µM.

Turning to `O=C(CCCCCC(=O)c1ccc(F)cc1)N[C@H](CN1CCCC1)[C@@H](O)c1ccc2c(c1)OCCO2` [Compound 628], the IC50 is not above 0.1 µM.

Turning to `COc1ccc(C(=O)CCCCCC(=O)NC(CN2CC[C@@H](F)C2)[C@H](O)c2ccc3c(c2)OCCO3)cc1` (stereo partly shown) [Compound 531], the IC50 was not above 0.1 µM.

Turning to `COc1cc([C@H](O)[C@@H](CN2CCCC2)NC(=O)CCCCCC(C)=O)cc(OC)c1OC` [Compound 671], the IC50 lay in the range of 3 to 10 µM.

Turning to `O=C(N[C@H](CN1CCCC1)[C@@H](O)c1ccc2c(c1)OCCO2)C1(C(F)(F)F)CCC1` [Compound 614], the IC50 was in the range of 3 to 10 µM.

With `CCCCCCCC(=O)N[C@H](CN1[C@H](C)CC[C@@H]1C)[C@H](O)c1ccc2c(c1)OCCO2` [Compound 549], the IC50 lay in the range of 3 to 10 µM.

Turning to `CCCCOc1ccc([C@@H](O)[C@@H](CN2CCC(F)C2)NC(=O)CCCCC(=O)c2ccc(F)cc2)cc1` (stereo partly shown) [Compound 658], the IC50 lay in the range of 0.1 to 1 µM.

`COc1ccc(C(=O)CCCCCC(=O)N[C@H](CN2CCC[C@H]2C)C(O)c2ccc3c(c2)OCCO3)cc1` (stereo partly shown) [Compound 529]: the IC50 is not above 0.1 µM.

Turning to `O=C(CCCCS(=O)(=O)C1CCCCC1)N[C@H](CN1CC[C@@H](F)C1)[C@@H](O)c1ccc(OCc2ccccc2)cc1` [Compound 572], the IC50 lay in the range of 0.1 to 1 µM.

As to `CCCCCCCC(=O)N[C@H](CN1CC(OCCC)C1)[C@H](O)c1ccc2c(c1)OCCO2` [Compound 596], the IC50 lay within 3 to 10 µM.
